Tested on: individual adherent cells
Test: Force measurement from a single adherent cell on microfluidic embedded polymer NEMS force sensor
Assay type: cell-based
Conditions: 200 pN force resolution, 10 ms time resolution
Source text: Successful micro-fluidic encapsulation is routine and consistently performed at very high yields, (>90%). The force sensing capabilities of the devices have been tested and calibrated by perturbing the force sensors with glass micro-needles mounted on piezo-electric actuators, data shown in FIG. 6A. The force sensors have been tested in micro-fluidics be measuring their response to shear forces generated by fluid flow. The force sensors have been successfully used to measure forces exerted by individual adherent cells and to study the mechanical response of those cells to cytoskeleton perturbing reagents such as Cytochalasin D.
Such measurements were performed with 200 pN force resolution—an improvement of 25 fold over prior art—and 10 ms time resolution—and improvement of 300 fold over prior art.
These measurements were performed with 200 pN force resolution—an improvement of 25 fold over prior art—and 10 ms time resolution—and improvement of 300 fold over prior art.

C=C1[C@@H](C)[C@H]2[C@H](Cc3ccccc3)NC(=O)[C@]23[C@H](OC(C)=O)/C=C/[C@@](C)(O)C(=O)[C@@H](C)C/C=C/[C@H]3[C@@H]1O [Cytochalasin D]
force exerted by a single cell (force vs. time) when Cytochalasin D is removed (after removal of Cytochalasin D): recovery of the force
force exerted by a single cell (force vs. time) when Cytochalasin D is introduced (stable force in growth media before): collapse of that force
